Results as given in the CheMixHub viscosity set.
± gives the uncertainty stated by the source.

Assay: xn = mol fraction of the nth substance listed

CCCCN + COC(C)=O
303.15 K, 101 kPa
Conditions	viscosity [mPa·s]
x1 = 0.1441	0.4159 ± 0.0052
x1 = 0.2526	0.4351 ± 0.0054
x1 = 0.35	0.4469 ± 0.0056
x1 = 0.454	0.4552 ± 0.0057
x1 = 0.5721	0.458 ± 0.0057
x1 = 0.686	0.4596 ± 0.0057
x1 = 0.7578	0.4709 ± 0.0058
x1 = 0.8757	0.4985 ± 0.0062

CCCCN + COCCO
308.15 K, 101 kPa
Conditions	viscosity [mPa·s]
x2 = 0.1234	0.5285 ± 0.0071
x2 = 0.2404	0.6274 ± 0.0083
x2 = 0.3516	0.7219 ± 0.0094
x2 = 0.4576	0.8199 ± 0.011
x2 = 0.5606	0.9142 ± 0.012
x2 = 0.6503	0.9868 ± 0.013
x2 = 0.7471	1.048 ± 0.013
x2 = 0.8351	1.111 ± 0.014
x2 = 0.9193	1.173 ± 0.015

CN + CS(C)=O
303.15 K, 101 kPa
Conditions	viscosity [mPa·s]
x2 = 0.0607	1.738 ± 0.042
x2 = 0.12	1.823 ± 0.042
x2 = 0.2348	1.891 ± 0.039
x2 = 0.4501	2.172 ± 0.035
x2 = 0.6481	2.077 ± 0.025
x2 = 0.8308	1.895 ± 0.016

O=C(O)C(Cl)(Cl)Cl + C[N+](C)(C)CCO.[Cl-]
101 kPa, x2 = 0.333
Conditions	viscosity [mPa·s]
293.15 K	645.9 ± 25
298.15 K	435 ± 15
303.15 K	302.5 ± 9.3
308.15 K	216.1 ± 6
313.15 K	158.7 ± 4.1
318.15 K	119.2 ± 2.8
323.15 K	91.41 ± 2.1

O=C(O)[C@H](O)[C@@H](O)C(=O)O + C[N+](C)(C)CCO.[Cl-]
viscosity [mPa·s]
Conditions	303 K	313 K	313.2 K	323 K
101 kPa, x2 = 0.5	1281000 ± 340000	240000 ± 54000	–	73300 ± 14000
101.3 kPa, x2 = 0.669	–	–	6790 ± 1400	–

CC[N+](=O)[O-] + Cc1cc(C)cc(C)c1
293.15 K, 101.33 kPa
Conditions	viscosity [mPa·s]
x1 = 0.0912	0.69 ± 0.007
x1 = 0.1908	0.685 ± 0.007
x1 = 0.2974	0.68 ± 0.007
x1 = 0.3871	0.675 ± 0.007
x1 = 0.5179	0.669 ± 0.007
x1 = 0.6112	0.665 ± 0.007
x1 = 0.6912	0.665 ± 0.007
x1 = 0.7813	0.669 ± 0.007
x1 = 0.8874	0.671 ± 0.007

CCCCN + Cc1ccc(C)cc1
303.15 K, 101 kPa
Conditions	viscosity [mPa·s]
x1 = 0.0795	0.545 ± 0.006
x1 = 0.1507	0.53 ± 0.005
x1 = 0.2545	0.511 ± 0.005
x1 = 0.3628	0.494 ± 0.005
x1 = 0.4612	0.481 ± 0.005
x1 = 0.5562	0.471 ± 0.005
x1 = 0.6469	0.464 ± 0.005
x1 = 0.7338	0.457 ± 0.005
x1 = 0.8144	0.451 ± 0.005
x1 = 0.8979	0.448 ± 0.005
x1 = 0.9456	0.444 ± 0.005

CC[N+](=O)[O-] + Cc1ccc(C)cc1
293.15 K, 101.33 kPa
Conditions	viscosity [mPa·s]
x1 = 0.0968	0.633 ± 0.006
x1 = 0.1917	0.629 ± 0.006
x1 = 0.3	0.627 ± 0.006
x1 = 0.4039	0.626 ± 0.006
x1 = 0.4933	0.626 ± 0.006
x1 = 0.6083	0.629 ± 0.006
x1 = 0.6994	0.633 ± 0.006
x1 = 0.7938	0.644 ± 0.007
x1 = 0.9011	0.66 ± 0.007

CCCCN + Cc1cccc(C)c1
303.15 K, 101 kPa
Conditions	viscosity [mPa·s]
x1 = 0.0824	0.525 ± 0.005
x1 = 0.1495	0.516 ± 0.005
x1 = 0.2739	0.497 ± 0.005
x1 = 0.387	0.484 ± 0.005
x1 = 0.4543	0.476 ± 0.005
x1 = 0.5525	0.469 ± 0.005
x1 = 0.6484	0.462 ± 0.005
x1 = 0.7553	0.457 ± 0.005
x1 = 0.816	0.453 ± 0.005
x1 = 0.8978	0.448 ± 0.005
x1 = 0.9469	0.445 ± 0.005

CCCCN + Cc1ccccc1
303.15 K, 101 kPa
Conditions	viscosity [mPa·s]
x1 = 0.0685	0.51 ± 0.005
x1 = 0.1474	0.497 ± 0.005
x1 = 0.2553	0.485 ± 0.005
x1 = 0.328	0.474 ± 0.005
x1 = 0.4247	0.464 ± 0.005
x1 = 0.5197	0.457 ± 0.005
x1 = 0.6107	0.453 ± 0.005
x1 = 0.6993	0.449 ± 0.005
x1 = 0.7946	0.446 ± 0.005
x1 = 0.8819	0.445 ± 0.005
x1 = 0.9407	0.444 ± 0.005
x2 = 0.1475	0.4405 ± 0.0039
x2 = 0.2127	0.441 ± 0.0039
x2 = 0.2918	0.439 ± 0.0039
x2 = 0.3842	0.4402 ± 0.0039
x2 = 0.5074	0.4449 ± 0.004
x2 = 0.6083	0.4543 ± 0.004
x2 = 0.7064	0.4677 ± 0.0041
x2 = 0.8686	0.4956 ± 0.0044

CCCCN + Cc1ccccc1C
303.15 K, 101 kPa
Conditions	viscosity [mPa·s]
x1 = 0.0811	0.648 ± 0.006
x1 = 0.1509	0.624 ± 0.006
x1 = 0.2681	0.587 ± 0.006
x1 = 0.3574	0.56 ± 0.006
x1 = 0.4598	0.535 ± 0.005
x1 = 0.546	0.518 ± 0.005
x1 = 0.6419	0.499 ± 0.005
x1 = 0.7306	0.484 ± 0.005
x1 = 0.8169	0.469 ± 0.005
x1 = 0.8974	0.457 ± 0.005
x1 = 0.9503	0.45 ± 0.005
